In the assay the test system is T84 human intestinal cells. The format is cell-based.

Turning to cholera toxin, the “secretory response (short-circuit current) to cholera toxin” value was “a pronounced secretory response was observed”.
